Source: paper PMC11585928, “Screening the Global Health Priority Box against Plasmodium berghei liver stage parasites using an inexpensive luciferase detection protocol” (Malaria Journal, 2024)
Read-outs that look alike come from different tables or passages of the source.

Tests used:
[1] = tested on: P. berghei liver schizonts; design: method as in PMID 30523084; details: read-out: EC50 against P. berghei liver schizonts (reported); cited from earlier work
[2] = tested on: HepG2 cells; assay: HepG2 cytotoxicity assay in galactose media, 72 h, hepatic nuclei count by HCI; format: cell-based, Homo sapiens
Experimental: To assess the general cytotoxicity of GHPB compounds, HepG2 cells were cultured in media containing galactose instead of glucose to avoid false negatives due to the Crabtree effect. Following propagation of HepG2 in T-75 flasks with glucose-containing media as above, media was aspirated, the cell monolayer was washed with PBS, and then cells were trypsinized as above. Released cells were then resuspended in media containing glucose-free DMEM (Gibco, cat 11,966–025) supplemented with 10% FBS (Corning, cat 35–016-CV), 10 mM galactose (Sigma, cat G5388), 1 mM sodium pyruvate (Corning, cat 25–000-CI), 1 × penicillin–streptomycin-neomycin mix (Gibco, cat 15,640–055), and 2 mM L-glutamine (Gibco, cat 25,030–081). The cell density was calculated using trypan blue exclusion on a haemocytometer, diluted to 50 cells/µL, and 40 µL of cells were seeded into collagen-coated 384-well plates (Greiner Bio-One, cat 781,956) using a Biomek NXp (Beckman Coulter), resulting in 2 × 10^3 cells/well. The day after seeding, plates were treated with a pin tool as above and cultured for 72 h. Plates were then fixed with 4% paraformaldehyde, stained with 10 µg/mL Hoechst 33,342, and imaged on an ImageXpress Micro Confocal. Hepatic nuclei were quantified using MetaXpress (Molecular Devices) image analysis software. Both P. berghei liver schizont and HepG2 cytotoxicity data were loaded into CDD Vault for normalization and hit selection as described above. A total of 35 compounds were identified for resupply of fresh powder for confirmation in dose–response assays. […] Powders were diluted to 50 mM in DMSO and plated in 1000 × source plates as described above. […] Separately, two independent runs of the HepG2 cultured in galactose, assayed as described above, were used to assess the cytotoxicity potency and selectivity indices for these compounds. […] Receiver-operator characteristic (ROC) curves were generated using Graphpad Prism and area under the curve (AUC) was calculated using the Wilson/Brown method for both P. berghei liver schizont activity and HepG2 cytotoxicity.

[3] = molecular target: P. berghei liver schizonts; assay: GHPB dose-response confirmation, FLAR luciferase endpoint; format: cell-based, Plasmodium berghei
Experimental: A total of 35 compounds were identified for resupply of fresh powder for confirmation in dose–response assays. […] Powders were diluted to 50 mM in DMSO and plated in 1000 × source plates as described above. MMV390048 and puromycin were plated as the positive control for P. berghei liver schizont activity and cytotoxicity, respectively. Two independent experiments using 1 × FLAR and 5 × 10^3 cells/well were performed to assess the potency of these compounds against P. berghei liver schizonts, each with an independent production run of P. berghei sporozoites. […] Separately, two independent runs of the HepG2 cultured in galactose, assayed as described above, were used to assess the cytotoxicity potency and selectivity indices for these compounds. Both P. berghei liver schizont and HepG2 cytotoxicity data were loaded into CDD Vault for normalization, curve fitting, and EC50 calculations as described above. Receiver-operator characteristic (ROC) curves were generated using Graphpad Prism and area under the curve (AUC) was calculated using the Wilson/Brown method for both P. berghei liver schizont activity and HepG2 cytotoxicity.

[4] = tested on: P. berghei liver schizonts; assay: GHPB single point primary screen, FLAR luciferase endpoint; format: cell-based, Plasmodium berghei; details: 1 µM
Experimental: The GHPB is an open-access collection of compounds (80 for vector control, 80 for zoonotic and neglected diseases, 80 for drug resistant malaria) obtained from MMV. The library was supplied in a 96-well microtitre plate and moved into a low-volume 384-well plate (Greiner Bio-One, cat 784,261) using a Biomek NXp to transfer 5 μL of 1 mM compound into the destination wells. MMV390048 (1 µM) was used for the positive control wells and DMSO (0.1% v/v) was used for the negative control wells. The GHPB was screened by seeding 5 × 10^3 cells/well which, after 24 h, were infected with a maximum available inoculum of 1.44 × 10^3 sporozoites/well. Three hours post-infection, plates were treated with a pin tool as described above. After 44 h, media was dumped from the plate, lysed using the freeze/thaw method, and luciferase signal was detected with 1 × FLAR as described above.

| SMILES | EC50 [1] [nM] | HepG2 Cytotoxicity (pEC50 ± SD) [2] | EC50 ([3]; dose-response confirmation, FLAR, read-out: EC50 against P. berghei liver schizonts) [nM] | Activity (grouping in dose-response confirmation runs) ([3]; grouped as selectively active, active but with low selectivity, nonselective or inactive) | inhibition of P. berghei liver schizonts in the primary screen ([4]; 44 h) [%] | activity and selectivity in the primary screens ([4]; hit = > 80% inhibition of P. berghei and < 15% inhibition of HepG2) |
| --- | --- | --- | --- | --- | --- | --- |
| Cn1cc(CN2CCc3c(c(C(=O)NCc4nccs4)nn3Cc3ccccc3)C2)c2ccccc21 [MMV1167451] | 6300 |  |  |  |  |  |
| CCCOc1ccc(C(F)(F)F)cc1NC(=O)c1nc2nccc(C)n2n1 [MMV1262756] | 105 |  |  |  |  |  |
| Cn1ccnc1SCC(=O)Nc1ccc(C(=O)Nc2ncccc2O)cc1 [MMV1267536] |  | 4.83 ± 0.26 | 127 | active and selective | 69.1 | not considered hits |
